Tested on: Pseudomonas aeruginosa PAO1 MB9798 (efflux+, IMP-1)
Settings: ratio MITC95 PA 9798/MITC95 PA 9799; imipenem at 2 μg/mL
In short: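 Isogenic PAO1 pair (efflux+ MB9798, efflux− MB9799, both IMP-1) tested by microbroth MIC with fixed imipenem and/or ceftazidime, usually at CLSI breakpoint, plus fixed class A/C inhibitor against AmpC. MBL inhibitor titrated; concentration restoring susceptibility recorded and fold difference between strains taken as efflux extent.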

| SMILES | Efflux ratio |
| --- | --- |
| Nc1nc2c(-c3ccc(S(=O)(=O)NCCC4CNC4)c(S(N)(=O)=O)c3-c3nnn[nH]3)cccc2s1 [Example 30, 4-(2-amino-1,3-benzothiazol-4-yl)-N1-(2-azetidin-3-ylethyl)-3-(1H-tetrazol-5-yl)benzene-1,2-disulfonamide] | 1.00 |
| COCCNCCNS(=O)(=O)c1ccc(-c2cccc3sc(N)nc23)c(-c2nnn[nH]2)c1S(N)(=O)=O [Example 85, 4-(2-aminobenzo[d]thiazol-4-yl)-N1-(2-((2-methoxyethyl)amino)ethyl)-3-(1H-tetrazol-5-yl)benzene-1,2-disulfonamide] | 1.00 |
| Nc1nc2c(-c3ccc(S(=O)(=O)NC[C@@H](N)CO)c(S(N)(=O)=O)c3-c3nn[nH]n3)cccc2[nH]1 [Example 190, 4-(2-amino-1H-benzo[d]imidazol-4-yl)-N1-((R)-2-amino-3-hydroxypropyl)-3-(2H-tetrazol-5-yl)benzene-1,2-disulfonamide] | 0.50 |
| CC(C)(CN)NS(=O)(=O)c1ccc(-c2cccnc2N)c(-c2nn[nH]n2)c1S(N)(=O)=O [Example 211, N1-(1-amino-2-methylpropan-2-yl)-4-(2-aminopyridin-3-yl)-3-(2H-tetrazol-5-yl)benzene-1,2-disulfonamide] | 4.00 |
| CO[C@H]1CNC[C@@H]1NS(=O)(=O)c1ccc(-c2cccc3sc(N)nc23)c(-c2nnn[nH]2)c1S(N)(=O)=O.O=C(O)C(F)(F)F [Example 108, (3S,4S)-3-(4-(2-aminobenzo[d]thiazol-4-yl)-2-sulfamoyl-3-(1H-tetrazol-5-yl)phenylsulfonamido)-4-methoxypyrrolidin-1-ium 2,2,2-trifluoroacetate] | 1.00 |
| Nc1nc2c(-c3ccc(S(=O)(=O)N4CCOCC4)c(S(N)(=O)=O)c3-c3nnn[nH]3)cccc2s1 [Example 29, 3-(2-amino-1,3-benzothiazol-4-yl)-6-(morpholin-4-ylsulfonyl)-2-(1H-tetrazol-5-yl)benzenesulfonamide] | 16.00 |
| Nc1nc2c(-c3ccc(S(=O)(=O)N[C@H]4CN[C@H](CO)C4)c(S(N)(=O)=O)c3-c3nnn[nH]3)cccc2s1 [Example 78, 4-(2-amino-1,3-benzothiazol-4-yl)-N1-[(3R,5S)-5-(hydroxymethyl)pyrrolidin-3-yl]-3-(1H-tetrazol-5-yl)benzene-1,2-disulfonamide] | 0.50 |
| Nc1nc2c(-c3ccc(S(=O)(=O)NCC4CNCCO4)c(S(N)(=O)=O)c3-c3nnn[nH]3)cccc2s1.O=C(O)C(F)(F)F (centres unmarked) [Example 112, 2-((4-(2-aminobenzo[d]thiazol-4-yl)-2-sulfamoyl-3-(1H-tetrazol-5-yl)phenylsulfonamido)methyl)morpholin-4-ium 2,2,2-trifluoroacetate] | 1.00 |
| NS(=O)(=O)c1c(S(=O)(=O)N[C@@H]2CCNC2)ccc(-c2cccc3nonc23)c1-c1nn[nH]n1 [Example 238, (R)-4-(benzo[c][1,2,5]oxadiazol-4-yl)-N^1-(pyrrolidin-3-yl)-3-(2H-tetrazol-5-yl)benzene-1,2-disulfonamide] | 4.00 |
| CN(C)CC(F)(F)CNS(=O)(=O)c1ccc(-c2cccc3sc(N)nc23)c(-c2nnn[nH]2)c1S(N)(=O)=O [Example 16, 4-(2-amino-1,3-benzothiazol-4-yl)-N1-[3-(dimethylamino)-2,2-difluoropropyl]-3-(1H-tetrazol-5-yl)benzene-1,2-disulfonamide] | 16.00 |
| NS(=O)(=O)c1c(S(=O)(=O)N[C@H]2C[C@H](N)C2)ccc(-c2cccc3[nH]cnc23)c1-c1nn[nH]n1 [Example 200, N^1-((1r,3r)-3-aminocyclobutyl)-4-(1H-benzo[d]imidazol-4-yl)-3-(2H-tetrazol-5-yl)benzene-1,2-disulfonamide] | 1.00 |
| CN1CC[C@@H](CNS(=O)(=O)c2ccc(-c3cccc4sc(N)nc34)c(-c3nnn[nH]3)c2S(N)(=O)=O)C1 [Example 76, 4-(2-amino-1,3-benzothiazol-4-yl)-N^1-{[(3R)-1-methylpyrrolidin-3-yl]methyl}-3-(1H-tetrazol-5-yl)benzene-1,2-disulfonamide] | 0.50 |
| NS(=O)(=O)c1c(S(=O)(=O)N[C@@H]2CCNC2)ccc(-c2cnc3ccccn23)c1-c1nnn[nH]1 [Example 140, (R)-4-(imidazo[1,2-a]pyridin-3-yl)-N1-(pyrrolidin-3-yl)-3-(1H-tetrazol-5-yl)benzene-1,2-disulfonamide] | 2.00 |
| Nc1nc2cccc(-c3ccc(S(=O)(=O)N4CCNCC4)c(S(N)(=O)=O)c3-c3nn[nH]n3)c2[nH]1 [Example 157, 3-(2-amino-3H-benzo[d]imidazol-4-yl)-6-(piperazin-1-ylsulfonyl)-2-(2H-tetrazol-5-yl)benzenesulfonamide] | 4.00 |
| Nc1nc2c(-c3ccc(S(=O)(=O)N[C@H]4CO[C@H]5[C@H]4OC[C@H]5O)c(S(N)(=O)=O)c3-c3nnn[nH]3)cccc2s1 [Example 50, 2-({[4-(2-amino-1,3-benzothiazol-4-yl)-2-sulfamoyl-3-(1H-tetrazol-5-yl)phenyl]sulfonyl}amino)-1,4:3,6-dianhydro-2-deoxy-D-allitol] | 2.00 |
| Cn1c(N)nc2c(-c3ccc(S(=O)(=O)N[C@@H]4CCNC4)c(S(N)(=O)=O)c3-c3nn[nH]n3)cccc21 [Example 164, 4-(2-amino-1-methyl-1H-benzo[d]imidazol-4-yl)-N^1-((R)-pyrrolidin-3-yl)-3-(2H-tetrazol-5-yl)benzene-1,2-disulfonamide] | 1.00 |
| NCCCNS(=O)(=O)c1ccc(-c2cccc3[nH]c(N)nc23)c(-c2nn[nH]n2)c1S(N)(=O)=O [Example 182, 4-(2-amino-1H-benzo[d]imidazol-4-yl)-N1-(3-aminopropyl)-3-(2H-tetrazol-5-yl)benzene-1,2-disulfonamide] | 0.80 |
| Nc1nc2c(-c3ccc(S(=O)(=O)NCC4(N)CC4)c(S(N)(=O)=O)c3-c3nn[nH]n3)cccc2s1 [Example 149, 4-(2-aminobenzo[d]thiazol-4-yl)-N1-((1-aminocyclopropyl)methyl)-3-(2H-tetrazol-5-yl)benzene-1,2-disulfonamide] | 1.00 |
| C[N+]1(C)CC[C@H](NS(=O)(=O)c2ccc(-c3cccc4[nH]c(N)nc34)c(-c3nn[n-]n3)c2S(N)(=O)=O)C1 [Example 166, (S)-5-(6-(2-amino-1H-benzo[d]imidazol-4-yl)-3-(N-(1,1-dimethylpyrrolidin-1-ium-3-yl)sulfamoyl)-2-sulfamoylphenyl)tetrazol-2-ide] | 1.00 |
| C[C@H](N)CC(=O)NS(=O)(=O)c1ccc(-c2cccc3[nH]c(N)nc23)c(-c2nn[nH]n2)c1S(N)(=O)=O [Example 208, (S)-3-amino-N-((4-(2-amino-1H-benzo[d]imidazol-4-yl)-2-sulfamoyl-3-(2H-tetrazol-5-yl)phenyl)sulfonyl)butanamide] | 1.00 |
| CN1CCOC(CNS(=O)(=O)c2ccc(-c3cccc4sc(N)nc34)c(-c3nnn[nH]3)c2S(N)(=O)=O)C1 (centres unmarked) [Example 17, 4-(2-amino-1,3-benzothiazol-4-yl)-N1-[(4-methylmorpholin-2-yl)methyl]-3-(1H-tetrazol-5-yl)benzene-1,2-disulfonamide] | 2.00 |
| Cn1c(N)nc2c(-c3ccc(S(=O)(=O)N[C@H]4CC[N+](C)(C)C4)c(S(N)(=O)=O)c3-c3nn[n-]n3)cccc21 [Example 167, (S)-5-(6-(2-amino-1-methyl-1H-benzo[d]imidazol-4-yl)-3-(N-(1,1-dimethylpyrrolidin-1-ium-3-yl)sulfamoyl)-2-sulfamoylphenyl)tetrazol-2-ide] | 2.00 |
| Nc1nc2c(-c3ccc(S(=O)(=O)N[C@H]4CNC[C@@H]4F)c(S(N)(=O)=O)c3-c3nnn[nH]3)cccc2s1 [Example 59, 4-(2-amino-1,3-benzothiazol-4-yl)-N1-[(3S,4S)-4-fluoropyrrolidin-3-yl]-3-(1H-tetrazol-5-yl)benzene-1,2-disulfonamide] | 1.00 |
| CNCCNS(=O)(=O)c1ccc(-c2cccc3sc(N)nc23)c(-c2nnn[nH]2)c1S(N)(=O)=O [Example 31, 4-(2-amino-1,3-benzothiazol-4-yl)-N^1-[2-(methylamino)ethyl]-3-(1H-tetrazol-5-yl)benzene-1,2-disulfonamide] | 1.50 |
| NC[C@H](N)CNS(=O)(=O)c1ccc(-c2cnccc2N)c(-c2nn[nH]n2)c1S(N)(=O)=O [Example 223, (S)-4-(4-aminopyridin-3-yl)-N1-(2,3-diaminopropyl)-3-(2H-tetrazol-5-yl)benzene-1,2-disulfonamide] | 2.00 |
| Nc1ccc(-c2ccc(S(=O)(=O)N[C@@H]3CCNC3)c(S(N)(=O)=O)c2-c2nn[nH]n2)cn1 [Example 194, (R)-4-(6-aminopyridin-3-yl)-N^1-(pyrrolidin-3-yl)-3-(2H-tetrazol-5-yl)benzene-1,2-disulfonamide] | 0.80 |
| Nc1nc2c(-c3ccc(S(=O)(=O)N[C@H]4CN[C@@H](CO)C4)c(S(N)(=O)=O)c3-c3nnn[nH]3)cccc2s1 [Example 81, 4-(2-amino-1,3-benzothiazol-4-yl)-N1-[(3R,5R)-5-(hydroxymethyl)pyrrolidin-3-yl]-3-(1H-tetrazol-5-yl)benzene-1,2-disulfonamide] | 0.50 |
| Nc1nc2c(-c3ccc(S(=O)(=O)NC[C@@H](N)C(=O)O)c(S(N)(=O)=O)c3-c3nn[nH]n3)cccc2s1 [Example 154, (R)-2-amino-3-((4-(2-aminobenzo[d]thiazol-4-yl)-2-sulfamoyl-3-(2H-tetrazol-5-yl)phenyl)sulfonamido) propanoic acid] | 0.50 |
| CC(C)(N)CNS(=O)(=O)c1ccc(-c2cccc3sc(N)nc23)c(-c2nnn[nH]2)c1S(N)(=O)=O [Example 87, N^1-(2-amino-2-methylpropyl)-4-(2-aminobenzo[d]thiazol-4-yl)-3-(1H-tetrazol-5-yl)benzene-1,2-disulfonamide] | 0.50 |
